Key:
[1] = Partition coefficient (logP); assay type: physicochemical; settings: octanol/water
Mus musculus [2] = assay: In vivo antitumor activity was determined after administration of compound (1.0 umol/kg) in mice bearing RIF tumors exposed to laser light (135 J/cm**2) on day 1-2; assay type: functional
Mus musculus [3] = assay: In vivo antitumor activity was determined after administration of compound (1.0 umol/kg) in mice bearing RIF tumors exposed to laser light (135 J/cm**2) on day 7; Tumor regrowth; assay type: functional, organism-based
Mus musculus [4] = assay: In vivo antitumor activity was determined after administration of compound (1.0 umol/kg) in mice bearing RIF tumors exposed to laser light (135 J/cm**2) on day 14; assay type: functional
Mus musculus [5] = assay: In vivo antitumor activity was determined after administration of compound (1.0 umol/kg) in mice bearing RIF tumors exposed to laser light (135 J/cm**2) on day 21; assay type: functional
Mus musculus [6] = assay: In vivo antitumor activity was determined after administration of compound (1.0 umol/kg) in mice bearing RIF tumors exposed to laser light (135 J/cm**2) on day 30; assay type: functional
Mus musculus [7] = assay: In vivo antitumor activity was determined after administration of compound (1.0 umol/kg) in mice bearing RIF tumors exposed to laser light (135 J/cm**2) on day 7; assay type: functional
Mus musculus [8] = assay: In vivo antitumor activity was determined after administration of compound (1.0 umol/kg) in mice bearing RIF tumors exposed to laser light (135 J/cm**2) on day 1-2; No rseponse; assay type: functional, organism-based
Mus musculus [9] = assay: In vivo antitumor activity was determined after administration of compound (1.0 umol/kg) in mice bearing RIF tumors exposed to laser light (135 J/cm**2) on day 14; No rseponse; assay type: functional, organism-based
Mus musculus [10] = assay: In vivo antitumor activity was determined after administration of compound (1.0 umol/kg) in mice bearing RIF tumors exposed to laser light (135 J/cm**2) on day 21; No rseponse; assay type: functional, organism-based
Mus musculus [11] = assay: In vivo antitumor activity was determined after administration of compound (1.0 umol/kg) in mice bearing RIF tumors exposed to laser light (135 J/cm**2) on day 30; No rseponse; assay type: functional, organism-based
Mus musculus [12] = assay: In vivo antitumor activity was determined after administration of compound (1.0 umol/kg) in mice bearing RIF tumors exposed to laser light (135 J/cm**2) on day 7; No rseponse; assay type: functional, organism-based

| logP [1] | SMILES | Tumor cure (Mus musculus [2]) [%] | Tumor cure (Mus musculus [3]) | Tumor cure (Mus musculus [4]) [%] | Tumor cure (Mus musculus [5]) [%] | Tumor cure (Mus musculus [6]) [%] | Tumor cure (Mus musculus [7]) [%] | Tumor cure (Mus musculus [8]) | Tumor cure (Mus musculus [9]) | Tumor cure (Mus musculus [10]) | Tumor cure (Mus musculus [11]) | Tumor cure (Mus musculus [12]) |
| --- | --- | --- | --- | --- | --- | --- | --- | --- | --- | --- | --- | --- |
| 10.62 | CCCCCCCCCCN1C(=O)c2c3nc(cc4nc(cc5[nH]c(cc6[nH]c2c(c6C)C1=O)c(CC)c5C)C(CC)=C4C)[C@@H](C)[C@@H]3CCC(=O)OC | 100 | Tumour regrowth |  |  |  |  |  |  |  |  |  |
| 10.83 | CCCCCCCOC(C)C1=C(C)c2cc3nc(c4c5[nH]c(cc6[nH]c(cc1n2)c(C)c6CC)c(C)c5C(=O)N(CCCCCC)C4=O)[C@@H](CCC(=O)OC)[C@@H]3C (some centres not stated) | 100 |  | 100 | 100 | 100 | 100 |  |  |  |  |  |
| 10.8 | CCCCCCCCOCC1=C(C)c2cc3nc(c4c5[nH]c(cc6[nH]c(cc1n2)c(C)c6CC)c(C)c5C(=O)N(CCCCCC)C4=O)[C@@H](CCC(=O)OC)[C@@H]3C |  |  |  |  |  |  | No response | No response | No response | No response | No response |
| 10.78 | CCCCCCCOCc1c2nc(c3c4nc(cc5[nH]c(cc6[nH]c1c(C)c6CC)c(C)c5CC)C(C)=C4C(=O)N(CCCCCC)C3=O)[C@@H](CCC(=O)OC)[C@@H]2C | 50 |  | 50 | 50 | 50 | 50 |  |  |  |  |  |
| 10.83 | CCCCCCCOC(C)c1c(C)c2cc3[nH]c(cc4nc(c5c6nc(cc1[nH]2)C(C)=C6C(=O)N(CCCCCC)C5=O)[C@@H](CCC(=O)OC)[C@@H]4C)c(C)c3CC (some centres not stated) |  |  |  |  |  |  | No response | No response | No response | No response | No response |

Reference: ChEMBL document CHEMBL1133217, “Purpurinimides as photosensitizers: effect of the presence and position of the substituents in the in vivo photodynamic efficacy” (Bioorg Med Chem Lett, 2000)
